Laboratory results published in patent US20250230193A1, “CYCLIC COMPOUND HAVING SELECTIVE KRAS INHIBITORY EFFECT ON HRAS AND NRAS” (CHUGAI SEIYAKU KABUSHIKI KAISHA, priority 2022, published 2025).

How the values were obtained:
[1] = molecular target: GDP-bound HRAS wild-type protein (Homo sapiens, UniProt P01112); assay: Binding to HRAS by surface plasmon resonance (SPR), Single Cycle Kinetics; settings: for HRAS/KRAS (ratio of KD value with respect to HRAS to KD value with respect to KRAS) / HRAS/KRAS (ratio of KD value for HRAS to KD value for KRAS): GDP-bound HRAS wild-type vs GDP-bound KRAS wild-type
Sequence of GDP-bound HRAS wild-type protein (P01112 whole entry): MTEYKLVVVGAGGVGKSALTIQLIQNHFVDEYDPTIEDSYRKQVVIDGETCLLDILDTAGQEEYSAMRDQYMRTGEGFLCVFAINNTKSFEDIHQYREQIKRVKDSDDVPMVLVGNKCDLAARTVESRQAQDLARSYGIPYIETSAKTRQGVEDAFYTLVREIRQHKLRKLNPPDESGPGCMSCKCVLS

[2] = molecular target: GDP-bound NRAS wild-type protein (Homo sapiens, UniProt P01111); assay: Binding to NRAS by surface plasmon resonance (SPR), Single Cycle Kinetics; settings: for NRAS/KRAS (ratio of KD value with respect to NRAS to KD value with respect to KRAS) / NRAS/KRAS (ratio of KD value for NRAS to KD value for KRAS): GDP-bound NRAS wild-type vs GDP-bound KRAS wild-type
Sequence of GDP-bound NRAS wild-type protein (P01111 whole entry): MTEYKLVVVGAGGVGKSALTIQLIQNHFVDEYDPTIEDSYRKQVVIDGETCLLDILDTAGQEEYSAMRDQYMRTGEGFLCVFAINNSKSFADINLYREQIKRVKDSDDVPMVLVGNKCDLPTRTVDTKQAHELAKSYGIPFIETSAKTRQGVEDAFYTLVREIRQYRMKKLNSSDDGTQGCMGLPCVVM

Compound: CC[C@H](C)[C@@H]1NC(=O)[C@H](CC(C)C)N(C)C(=O)C[C@@H](C(=O)N2CCOCC2)N(C)C(=O)[C@H](C2CCCC2)N(C)C(=O)C2(CCC2)NC(=O)[C@@H]2C[C@@H](OCC3CC3)CN2C(=O)[C@H](CCc2cc(F)c(C(F)(F)F)c(F)c2)NC(=O)CN(C)C(=O)[C@H](Cc2ccc(C(F)(F)F)cc2)N2CCCCC[C@@H](C2=O)N(C)C(=O)CN(C)C1=O [PP1005]
- HRAS/KRAS (ratio of KD value with respect to HRAS to KD value with respect to KRAS) ([1]; KD ratio, SPR): A (a compound having 10 or more and less than 20 is denoted as A)
- NRAS/KRAS (ratio of KD value with respect to NRAS to KD value with respect to KRAS) ([2]; KD ratio, SPR): A (a compound having 10 or more and less than 20 is denoted as A)

Compound: CC[C@H](C)[C@@H]1NC(=O)[C@H](CC(C)C)N(C)C(=O)C[C@@H](C(=O)N2CCOCC2)N(C)C(=O)[C@H](C2CCCC2)N(C)C(=O)C2(CCCC2)NC(=O)[C@@H]2CCCN2C(=O)[C@H](CCc2ccc(C(F)(F)F)c(Cl)c2)NC(=O)CN(C)C(=O)[C@H](Cc2ccc(Cl)cc2)N2CCCC[C@@H](C2=O)N(C)C(=O)CN(C)C1=O [PP0532]
- HRAS/KRAS (ratio of KD value with respect to GDP-bound HRAS wild-type protein to KD value with respect to KRAS) ([1]; SPR): B (a compound having 3 or more and less than 10 is denoted as B)
- NRAS/KRAS (ratio of KD value with respect to GDP-bound NRAS wild-type protein to KD value with respect to KRAS) ([2]; SPR): C (A compound having a KD ratio of 0.1 or more and less than 3 is denoted as C)

Compound: CCO[C@@H]1C[C@H]2C(=O)NC3(CCC3)C(=O)N(C)[C@@H](C3CCCC3)C(=O)N(C)[C@H](C(=O)N(C)C)CC(=O)N(C)[C@@H](CC3CCC3)C(=O)N[C@@H]([C@@H](C)CC)C(=O)N(C)CC(=O)N(C)[C@H]3CCCCN(C3=O)[C@@H](Cc3ccc(C(F)(F)F)cc3)C(=O)N(C)CC(=O)N[C@@H](CCc3cc(F)c(C(F)(F)F)c(F)c3)C(=O)N2C1 [PP0698]
- HRAS/KRAS (ratio of KD value with respect to GDP-bound HRAS wild-type protein to KD value with respect to KRAS) ([1]; SPR): C (A compound having a KD ratio of 0.1 or more and less than 3 is denoted as C)
- NRAS/KRAS (ratio of KD value with respect to GDP-bound NRAS wild-type protein to KD value with respect to KRAS) ([2]; SPR): C (A compound having a KD ratio of 0.1 or more and less than 3 is denoted as C)

Compound: CCO[C@@H]1C[C@H]2C(=O)NC3(CC(C)(C)C3)C(=O)N(C)[C@@H](C3CCCC3)C(=O)N(CC)[C@H](C(=O)N(C)C)CC(=O)N(C)[C@@H](CC(C)C)C(=O)N[C@@H]([C@@H](C)CC)C(=O)NCC(=O)N(C)[C@H]3C/C=C\CCN(C3=O)[C@@H](Cc3ccc(C(F)(F)F)cc3)C(=O)N(C)CC(=O)N[C@@H](CCc3cc(F)c(C(F)(F)F)c(F)c3)C(=O)N2C1 [PP1773]
- HRAS/KRAS (ratio of KD value for HRAS to KD value for KRAS) ([1]; KD ratio, SPR): A (a compound having 10 or more and less than 20 is denoted as A)
- NRAS/KRAS (ratio of KD value for NRAS to KD value for KRAS) ([2]; KD ratio, SPR): A (a compound having 10 or more and less than 20 is denoted as A)

Compound: CCO[C@@H]1C[C@H]2C(=O)NC3(CC(C)(C)C3)C(=O)N(C)[C@@H](C(CC)CC)C(=O)N(C)[C@H](C(=O)N(C)C)CC(=O)N(C)[C@@H](CC3CC3)C(=O)N[C@@H]([C@@H](C)CC)C(=O)N(C)CC(=O)N(C)[C@H]3C/C=C\CCN(C3=O)[C@@H](Cc3ccc(C(F)(F)F)cc3)C(=O)N(C)CC(=O)N[C@@H](CCc3ccc(C(F)(F)F)c(Cl)c3)C(=O)N2C1 [PP2124]
- HRAS/KRAS (ratio of KD value with respect to HRAS to KD value with respect to KRAS) ([1]; SPR): A (a compound having 10 or more and less than 20 is denoted as A)
- NRAS/KRAS (ratio of KD value with respect to NRAS to KD value with respect to KRAS) ([2]; SPR): AA (a compound having 20 or more is denoted as AA)

Compound: CCC[C@H]1C(=O)N[C@@H]([C@@H](C)CC)C(=O)N(C)CC(=O)N(C)[C@H]2C/C=C\CCN(C2=O)[C@@H](Cc2ccc(C(F)(F)F)cc2)C(=O)N(C)CC(=O)N[C@@H](CCc2cc(F)c(C(F)(F)F)c(F)c2)C(=O)N(C)[C@@H](COC)C(=O)NC2(CC(C)(C)C2)C(=O)N(C)[C@@H](C2CCCC2)C(=O)N(C)[C@H](C(=O)N(C)C)CC(=O)N1C [PP1936]
- HRAS/KRAS (ratio of KD value for HRAS to KD value for KRAS) ([1]; KD ratio, SPR): A (a compound having 10 or more and less than 20 is denoted as A)
- NRAS/KRAS (ratio of KD value for NRAS to KD value for KRAS) ([2]; KD ratio, SPR): AA (a compound having 20 or more is denoted as AA)

Compound: CC[C@H](C)[C@@H]1NC(=O)[C@H](COC)N(C)C(=O)C[C@@H](C(=O)N2CCCCC2)N(C)C(=O)[C@H](C2CCCC2)N(C)C(=O)C2(CC(C)(C)C2)NC(=O)[C@@H]2C[C@@H](OC(C)C)CN2C(=O)[C@H](CCc2ccc(Cl)c(Cl)c2)NC(=O)CN(C)C(=O)[C@H](Cc2ccc(C(F)(F)F)cc2)N2CC/C=C\C[C@@H](C2=O)N(C)C(=O)CN(C)C1=O [PP2671]
- HRAS/KRAS (ratio of KD value with respect to GDP-bound HRAS wild-type protein to KD value with respect to KRAS) ([1]; class symbols): A (a compound having 10 or more and less than 20 is denoted as A)
- NRAS/KRAS (ratio of KD value with respect to GDP-bound NRAS wild-type protein to KD value with respect to KRAS) ([2]; class symbols): A (a compound having 10 or more and less than 20 is denoted as A)

Compound: CCCN(C)C(=O)[C@@H]1CC(=O)N(C)[C@@H](COC)C(=O)N[C@@H]([C@@H](C)CC)C(=O)N(C)CC(=O)N(C)[C@H]2C/C=C\CCN(C2=O)[C@@H](Cc2ccc(C(F)(F)F)cc2)C(=O)N(C)CC(=O)N[C@@H](CCc2cc(F)c(C(F)(F)F)c(F)c2)C(=O)N2C[C@H](OCC)C[C@H]2C(=O)NC2(CC(C)(C)C2)C(=O)N(C)[C@@H](C2CCCC2)C(=O)N1C [PP1672]
- HRAS/KRAS (ratio of KD value for HRAS to KD value for KRAS) ([1]; KD ratio, SPR): A (a compound having 10 or more and less than 20 is denoted as A)
- NRAS/KRAS (ratio of KD value for NRAS to KD value for KRAS) ([2]; KD ratio, SPR): A (a compound having 10 or more and less than 20 is denoted as A)

Compound: CCO[C@@H]1C[C@H]2C(=O)NC3(CCC3)C(=O)N(C)[C@@H](C3CCCC3)C(=O)N(C)[C@H](C(=O)N(C)C)CC(=O)N(C)[C@@H](COC)C(=O)N[C@@H]([C@@H](C)CC)C(=O)N3CC[C@H]3C(=O)N(C)[C@H]3CCCCCN(C3=O)[C@@H](Cc3ccc(C(F)(F)F)cc3)C(=O)N(C)CC(=O)N[C@@H](CCc3cc(F)c(C(F)(F)F)c(F)c3)C(=O)N2C1 [PP0864]
- HRAS/KRAS (ratio of KD value with respect to HRAS to KD value with respect to KRAS) ([1]; KD ratio, SPR): B (a compound having 3 or more and less than 10 is denoted as B)
- NRAS/KRAS (ratio of KD value with respect to NRAS to KD value with respect to KRAS) ([2]; KD ratio, SPR): B (a compound having 3 or more and less than 10 is denoted as B)

Compound: CCCN(C)C(=O)[C@@H]1CC(=O)N(C)[C@@H](CC(F)F)C(=O)N[C@@H]([C@@H](C)CC)C(=O)N(C)CC(=O)N(C)[C@H]2C/C=C\CCN(C2=O)[C@@H](Cc2ccc(C(F)(F)F)cc2)C(=O)N(C)CC(=O)N[C@@H](CCc2cc(F)c(Cl)c(F)c2)C(=O)N2C[C@H](OCC)C[C@H]2C(=O)NC2(CC(C)(C)C2)C(=O)N(C)[C@@H](C2CCCC2)C(=O)N1C [PP1757]
- HRAS/KRAS (ratio of KD value for HRAS to KD value for KRAS) ([1]; KD ratio, SPR): A (a compound having 10 or more and less than 20 is denoted as A)
- NRAS/KRAS (ratio of KD value for NRAS to KD value for KRAS) ([2]; KD ratio, SPR): AA (a compound having 20 or more is denoted as AA)

Compound: CCOC[C@H]1C(=O)N[C@@H]([C@@H](C)CC)C(=O)N2CCC[C@H]2C(=O)N(C)[C@H]2C/C=C\CCN(C2=O)[C@@H](CC2CCCCC2)C(=O)N(C)CC(=O)N[C@@H](CCc2ccc(C(F)(F)F)c(OC)c2)C(=O)N2C[C@@H](C)C[C@H]2C(=O)N(C)C2(CCC2)C(=O)N(C)[C@@H](C2CCCC2)C(=O)N(C)[C@H](C(=O)N(C)C)CC(=O)N1C [PP2375]
- HRAS/KRAS (ratio of KD value with respect to HRAS to KD value with respect to KRAS) ([1]; SPR): B (a compound having 3 or more and less than 10 is denoted as B)
- NRAS/KRAS (ratio of KD value with respect to NRAS to KD value with respect to KRAS) ([2]; SPR): A (a compound having 10 or more and less than 20 is denoted as A)

Compound: CCO[C@@H]1C[C@H]2C(=O)NC3(CC(C)(C)C3)C(=O)N(C)[C@@H](C(CC)CC)C(=O)N(C)[C@H](C(=O)N(C)C)CC(=O)N(C)[C@@H](C(C)C)C(=O)N[C@@H]([C@@H](C)CC)C(=O)N(C)CC(=O)N(C)[C@H]3C/C=C\CCN(C3=O)[C@@H](Cc3ccc(C(F)(F)F)cc3)C(=O)N(C)CC(=O)N[C@@H](CCc3cc(F)c(C(F)(F)F)c(F)c3)C(=O)N2C1 [PP2135]
- HRAS/KRAS (ratio of KD value with respect to HRAS to KD value with respect to KRAS) ([1]; SPR): A (a compound having 10 or more and less than 20 is denoted as A)
- NRAS/KRAS (ratio of KD value with respect to NRAS to KD value with respect to KRAS) ([2]; SPR): AA (a compound having 20 or more is denoted as AA)

Compound: CCO[C@@H]1C[C@H]2C(=O)NC3(CCC3)C(=O)N(C)[C@@H](C3CCCC3)C(=O)N(C)[C@H](C(=O)N(C)C)CC(=O)N(C)[C@@H](CC)C(=O)N[C@@H]([C@@H](C)CC)C(=O)N(C)CC(=O)N(C)[C@H]3CC/C=C(/C)CN(C3=O)[C@@H](Cc3ccc(C(F)(F)F)cc3)C(=O)N(C)CC(=O)N[C@@H](CCc3cc(F)c(C(F)(F)F)c(F)c3)C(=O)N2C1 [PP1334]
- HRAS/KRAS (ratio of KD value for GDP-bound HRAS wild-type protein to KD value for KRAS) ([1]; SPR, KD ratio class): B (a compound having 3 or more and less than 10 is denoted as B)
- NRAS/KRAS (ratio of KD value for GDP-bound NRAS wild-type protein to KD value for KRAS) ([2]; SPR, KD ratio class): B (a compound having 3 or more and less than 10 is denoted as B)

Compound: CCC[C@H]1C(=O)N[C@@H]([C@@H](C)CC)C(=O)N(C)CC(=O)N(C)[C@H]2C/C=C\CCN(C2=O)[C@@H](Cc2ccc(C(F)(F)F)cc2)C(=O)N(C)CC(=O)N[C@@H](CCc2cc(F)c(C(F)(F)F)c(F)c2)C(=O)N2C[C@H](OCC)C[C@H]2C(=O)NC2(CCC2)C(=O)N(C)[C@@H](C2CCCC2)C(=O)N(C)[C@H](C(=O)N(C)C)CC(=O)N1C [PP1110]
- HRAS/KRAS (ratio of KD value with respect to HRAS to KD value with respect to KRAS) ([1]; KD ratio, SPR): B (a compound having 3 or more and less than 10 is denoted as B)
- NRAS/KRAS (ratio of KD value with respect to NRAS to KD value with respect to KRAS) ([2]; KD ratio, SPR): A (a compound having 10 or more and less than 20 is denoted as A)

Compound: CC[C@H](C)[C@@H]1NC(=O)[C@H](CC(C)C)N(C)C(=O)C[C@@H](C(=O)N2CCOCC2)N(C)C(=O)[C@H](CC(F)(F)F)N(C)C(=O)C2(CCCC2)NC(=O)[C@@H]2CCCN2C(=O)[C@H](CCc2cc(F)c(C(F)(F)F)c(F)c2)NC(=O)CN(C)C(=O)[C@H](Cc2ccc(C(F)(F)F)cc2)N2CCCC[C@@H](C2=O)N(C)C(=O)CN(C)C1=O [PP0568]
- HRAS/KRAS (ratio of KD value with respect to GDP-bound HRAS wild-type protein to KD value with respect to KRAS) ([1]; SPR): B (a compound having 3 or more and less than 10 is denoted as B)
- NRAS/KRAS (ratio of KD value with respect to GDP-bound NRAS wild-type protein to KD value with respect to KRAS) ([2]; SPR): B (a compound having 3 or more and less than 10 is denoted as B)
